Source: patent publication EP1363614B1, “USE OF 2-AMINO-1-(4-HYDROXY-3-METHANESULPHONAMIDOPHENYL)ETHANOL FOR TREATING URINARY INCONTINENCE” (Boehringer Ingelheim Pharma GmbH & Co. KG, priority 2001, dated 2002)

Columns and labels:
[1] = test system: dog's femoral artery; carotid artery in the dog; assay: Selectivity in the dog: femoral artery versus carotid artery contraction; type: cell-based; conditions: difference of percentage contraction of dog's femoral artery at 10^-5 M and percentage contraction of carotid artery at 10^-5 M
Protocol: (§1) The efficacy and selectivity of the compound according to the invention is determined as follows, using the same findings as described in 1:
Selectivity in the dog is the difference obtained from the percentage contraction of the dog's femoral artery at 10^-5 M and percentage contraction of the carotid artery in the dog at 10^-5 M.

human urethra = assay: Efficacy: contraction of human urethra compared with noradrenaline; type: cell-based; conditions: percentage of contraction compared with noradrenaline
Protocol: as §1
Maximum contraction in the dog and activity on human urethra are percentages of contraction compared with noradrenaline.

[2] = Metabolism: substrate breakdown by the enzyme CYP2D6; type: in vitro ADME; conditions: 30 minutes' incubation with CYP2D6; read-out: % Substrate breakdown after 30 minutes' incubation with CYP2D6
Protocol: To determine the metabolism the enzyme CYP2D6 was allowed to act on the hydrochloride of the compound 1 according to the formula I (2-amino-1-(4-hydroxy-3-methanesulphonamidophenyl)ethanol). After 30 minutes a check was made to determine how much of the substance had been broken down by the enzyme. (-)-R-2-Amino-1-(2-fluoro-5-methanesulphonamido-phenyl)ethanol 2 was used as a comparison.

Row | metabolised at 0.5 h [2] | Structure (SMILES) | selectivity in the dog [1] | Emax (human urethra)
1 | 1.4% | CS(=O)(=O)Nc1cc(C(O)CN)ccc1O (stereo not drawn) [Compound 1, 2-amino-1-(4-hydroxy-3-methanesulphonamidophenyl)ethanol] | 53 | 120%
2 | 2.1% | CS(=O)(=O)Nc1ccc(F)c([C@@H](O)CN)c1 [Compound 2, (-)-R-2-Amino-1-(2-fluoro-5-methanesulphonamido-phenyl)ethanol] | 40 | 48%
